Data as given in US11498899B2, “Nitrone herbicides” (FMC Corporation, priority 2016, dated 2022).

Experiments:
rice (Oryza sativa) = assay: Test B flooded paddy test, visual rating 0-100 (0 no effect, 100 complete control); conditions: Flood, 250 g ai/ha, applied to paddy water, rated after 13 to 15 days
[1] = test system: barnyardgrass (Echinochloa crus-galli); assay: Test B flooded paddy test, visual rating 0-100; conditions: Flood, 250 g ai/ha, applied to paddy water, rated after 13 to 15 days
[2] = test system: barnyardgrass (Echinochloa crus-galli); assay: Test A preemergence, visual injury rating 0-100 (0 no effect, 100 complete control); type: in vivo
[3] = test system: ducksalad (Heteranthera limosa); assay: Test B flooded paddy test, visual rating 0-100; conditions: Flood, 250 g ai/ha, applied to paddy water, rated after 13 to 15 days
[4] = test system: galium (catchweed bedstraw, Galium aparine); assay: Test A postemergence, visual injury rating 0-100; type: in vivo; conditions: 0 to 100 scale
corn (Zea mays) = assay: Test A postemergence, visual injury rating 0-100; type: in vivo; conditions: 0 to 100 scale
[5] = test system: ragweed (common ragweed, Ambrosia elatior); assay: Test A postemergence, visual injury rating 0-100; type: in vivo; conditions: 0 to 100 scale
[6] = test system: foxtail, giant (giant foxtail, Setaria faberii); assay: Test A postemergence, visual injury rating 0-100; type: in vivo; conditions: 0 to 100 scale
[7] = test system: pigweed (Amaranthus retroflexus); assay: Test A postemergence, visual injury rating 0-100; type: in vivo; conditions: 0 to 100 scale
[8] = test system: wheat (Triticum aestivum); assay: Test A postemergence, visual injury rating 0-100; type: in vivo; conditions: 0 to 100 scale
[9] = test system: blackgrass (Alopecurus myosuroides); assay: Test A postemergence, visual injury rating 0-100; type: in vivo; conditions: 0 to 100 scale
kochia (Kochia scoparia) [10] = assay: Test A postemergence, visual injury rating 0-100; type: in vivo; conditions: 0 to 100 scale
[11] = test system: ryegrass, Italian (Italian ryegrass, Lolium multiflorum); assay: Test A postemergence, visual injury rating 0-100; type: in vivo; conditions: 0 to 100 scale
[12] = test system: barnyardgrass (Echinochloa crus-galli); assay: Test A postemergence, visual injury rating 0-100; type: in vivo; conditions: 0 to 100 scale
[13] = test system: ragweed (common ragweed, Ambrosia elatior); assay: Test A preemergence, visual injury rating 0-100; type: in vivo
[14] = test system: foxtail, giant (giant foxtail, Setaria faberii); assay: Test A preemergence, visual injury rating 0-100; type: in vivo
[15] = test system: pigweed (Amaranthus retroflexus); assay: Test A preemergence, visual injury rating 0-100; type: in vivo
kochia (Kochia scoparia) [16] = assay: Test A preemergence, visual injury rating 0-100; type: in vivo
[17] = test system: ryegrass, Italian (Italian ryegrass, Lolium multiflorum); assay: Test A preemergence, visual injury rating 0-100; type: in vivo

Structure (SMILES) | Rice plant response rating (0 to 100 scale) (rice (Oryza sativa)) | Barnyardgrass plant response rating (0 to 100 scale) [1] | Barnyardgrass plant response rating (0 to 100 scale) ([2]; 125 g ai/ha) | Barnyardgrass plant response rating (0 to 100 scale) ([2]; 500 g ai/ha) | Ducksalad plant response rating (0 to 100 scale) [3] | Galium plant response rating ([4]; 125 g ai/ha) | Galium plant response rating ([4]; 500 g ai/ha) | Corn plant response rating (corn (Zea mays); 125 g ai/ha) | Corn plant response rating (corn (Zea mays); 500 g ai/ha) | Ragweed plant response rating ([5]; 125 g ai/ha) | Ragweed plant response rating ([5]; 500 g ai/ha) | Foxtail, Giant plant response rating ([6]; 125 g ai/ha) | Foxtail, Giant plant response rating ([6]; 500 g ai/ha) | Pigweed plant response rating ([7]; 125 g ai/ha) | Pigweed plant response rating ([7]; 500 g ai/ha) | Wheat plant response rating ([8]; 125 g ai/ha) | Wheat plant response rating ([8]; 500 g ai/ha) | Blackgrass plant response rating ([9]; 125 g ai/ha) | Blackgrass plant response rating ([9]; 500 g ai/ha) | Kochia plant response rating (kochia (Kochia scoparia) [10]; 125 g ai/ha) | further results
CC1=[N+]([O-])C(C(=O)Nc2cccc(F)c2F)C(c2ccc(F)c(C(F)(F)F)c2)C1 (racemic) [Compound 64] | 0 | 60 | 90 | 90 | 70 | 40 | 70 | 90 | 90 | 10 | 40 | 70 | 90 | 0 | 50 | 70 | 90 | 80 | 80 | 0 | Kochia plant response rating (kochia (Kochia scoparia) [10]; 500 g ai/ha): 30; Ryegrass, Italian plant response rating ([11]; 125 g ai/ha): 70; Ryegrass, Italian plant response rating ([11]; 500 g ai/ha): 80; Barnyardgrass plant response rating ([12]; 125 g ai/ha): 70; Barnyardgrass plant response rating ([12]; 500 g ai/ha): 90; Ragweed plant response rating (0 to 100 scale) ([13]; 125 g ai/ha): 0; Ragweed plant response rating (0 to 100 scale) ([13]; 500 g ai/ha): 70; Foxtail, Giant plant response rating (0 to 100 scale) ([14]; 125 g ai/ha): 90; Foxtail, Giant plant response rating (0 to 100 scale) ([14]; 500 g ai/ha): 90; Pigweed plant response rating (0 to 100 scale) ([15]; 125 g ai/ha): 50; Pigweed plant response rating (0 to 100 scale) ([15]; 500 g ai/ha): 80; Kochia plant response rating (0 to 100 scale) (kochia (Kochia scoparia) [16]; 125 g ai/ha): 20; Kochia plant response rating (0 to 100 scale) (kochia (Kochia scoparia) [16]; 500 g ai/ha): 80; Ryegrass, Italian plant response rating (0 to 100 scale) ([17]; 125 g ai/ha): 90; Ryegrass, Italian plant response rating (0 to 100 scale) ([17]; 500 g ai/ha): 90
CC1=[N+]([O-])C(C(=O)Nc2cccc(F)c2F)C(c2cccc(Br)n2)C1 (racemic) [Compound 65] | 10 | 15 | 0 | 90 | 60 | 0 | 30 | 0 | 0 | 0 | 0 | 0 | 20 | 0 | 0 | 0 | 10 | 0 | 0 | 0 | Kochia plant response rating (kochia (Kochia scoparia) [10]; 500 g ai/ha): 0; Ryegrass, Italian plant response rating ([11]; 125 g ai/ha): 0; Ryegrass, Italian plant response rating ([11]; 500 g ai/ha): 0; Barnyardgrass plant response rating ([12]; 125 g ai/ha): 0; Barnyardgrass plant response rating ([12]; 500 g ai/ha): 0; Ragweed plant response rating (0 to 100 scale) ([13]; 125 g ai/ha): 0; Ragweed plant response rating (0 to 100 scale) ([13]; 500 g ai/ha): 0; Foxtail, Giant plant response rating (0 to 100 scale) ([14]; 125 g ai/ha): 0; Foxtail, Giant plant response rating (0 to 100 scale) ([14]; 500 g ai/ha): 90; Pigweed plant response rating (0 to 100 scale) ([15]; 125 g ai/ha): 0; Pigweed plant response rating (0 to 100 scale) ([15]; 500 g ai/ha): 0; Kochia plant response rating (0 to 100 scale) (kochia (Kochia scoparia) [16]; 125 g ai/ha): 0; Kochia plant response rating (0 to 100 scale) (kochia (Kochia scoparia) [16]; 500 g ai/ha): 0; Ryegrass, Italian plant response rating (0 to 100 scale) ([17]; 125 g ai/ha): 0; Ryegrass, Italian plant response rating (0 to 100 scale) ([17]; 500 g ai/ha): 100
CC1=[N+]([O-])C(C(=O)Nc2cccc(F)c2F)C(c2ccc(Br)cn2)C1 (racemic) [Compound 66] | 15 | 35 | 0 | 20 | 75 | 0 | 0 | 0 | 0 | 0 | 0 | 0 | 0 | 0 | 0 | 0 | 0 | 0 | 0 | 0 | Kochia plant response rating (kochia (Kochia scoparia) [10]; 500 g ai/ha): 0; Ryegrass, Italian plant response rating ([11]; 125 g ai/ha): 0; Ryegrass, Italian plant response rating ([11]; 500 g ai/ha): 0; Barnyardgrass plant response rating ([12]; 125 g ai/ha): 0; Barnyardgrass plant response rating ([12]; 500 g ai/ha): 0; Ragweed plant response rating (0 to 100 scale) ([13]; 125 g ai/ha): 0; Ragweed plant response rating (0 to 100 scale) ([13]; 500 g ai/ha): 0; Foxtail, Giant plant response rating (0 to 100 scale) ([14]; 125 g ai/ha): 10; Foxtail, Giant plant response rating (0 to 100 scale) ([14]; 500 g ai/ha): 70; Pigweed plant response rating (0 to 100 scale) ([15]; 125 g ai/ha): 0; Pigweed plant response rating (0 to 100 scale) ([15]; 500 g ai/ha): 0; Kochia plant response rating (0 to 100 scale) (kochia (Kochia scoparia) [16]; 125 g ai/ha): 0; Kochia plant response rating (0 to 100 scale) (kochia (Kochia scoparia) [16]; 500 g ai/ha): 0; Ryegrass, Italian plant response rating (0 to 100 scale) ([17]; 125 g ai/ha): 0; Ryegrass, Italian plant response rating (0 to 100 scale) ([17]; 500 g ai/ha): 0
COc1cccc(C2CC(C)=[N+]([O-])C2C(=O)Nc2cccc(F)c2F)n1 (racemic) [Compound 67] | 15 | 15 | 0 | 70 | 65 | 0 | 0 | 0 | 0 | 0 | 0 | 0 | 10 | 0 | 0 | 0 | 0 | 0 | 0 | 0 | Kochia plant response rating (kochia (Kochia scoparia) [10]; 500 g ai/ha): 0; Ryegrass, Italian plant response rating ([11]; 125 g ai/ha): 0; Ryegrass, Italian plant response rating ([11]; 500 g ai/ha): 0; Barnyardgrass plant response rating ([12]; 125 g ai/ha): 0; Barnyardgrass plant response rating ([12]; 500 g ai/ha): 0; Ragweed plant response rating (0 to 100 scale) ([13]; 125 g ai/ha): 0; Ragweed plant response rating (0 to 100 scale) ([13]; 500 g ai/ha): 0; Foxtail, Giant plant response rating (0 to 100 scale) ([14]; 125 g ai/ha): 0; Foxtail, Giant plant response rating (0 to 100 scale) ([14]; 500 g ai/ha): 60; Pigweed plant response rating (0 to 100 scale) ([15]; 125 g ai/ha): 0; Pigweed plant response rating (0 to 100 scale) ([15]; 500 g ai/ha): 0; Kochia plant response rating (0 to 100 scale) (kochia (Kochia scoparia) [16]; 125 g ai/ha): 0; Kochia plant response rating (0 to 100 scale) (kochia (Kochia scoparia) [16]; 500 g ai/ha): 0; Ryegrass, Italian plant response rating (0 to 100 scale) ([17]; 125 g ai/ha): 0; Ryegrass, Italian plant response rating (0 to 100 scale) ([17]; 500 g ai/ha): 0
